# Legend:
# [1] = test system: subjects with moderate to severe Crohn's disease (CDAI score of 220-450); test: Phase IIa clinical trial of oral laquinimod in active moderate to severe Crohn's disease; assay type: in vivo, human; conditions: for dependence on steroids: moderate to severe Crohn's disease; for C-Reactive Protein level / clinical remission / clinical response / disease progression and/or disease complication / fecal calprotein level / number of open draining fistulas / symptoms of Crohn's disease: moderate to severe Crohn's disease (CDAI 220-450)
# Experimental: Overall up to ˜180 Crohn's disease patients are enrolled. […] The capsules were prepared using a blend proportional to the 0.6 mg capsules described in PCT International Application No. PCT/US2007/013721 (WO 2007/146248). The capsules were prepared according to the method described in PCT International Application No. PCT/US2007/013721 (WO 2007/146248), which is hereby incorporated by reference into this application. A loading dose regimen of double the maintenance/intended dose is given during the first two days of study drug treatment. Thereafter, starting on day 3, the daily maintenance/intended dose is administered. Subjects are required to maintain CDAI diary cards for each day of the screening period and, if randomized, on each day of the treatment and follow-up period. The scores obtained from the seven consecutive diaries completed prior to the baseline visit and to each of weeks 1, 2, 4, 6, 8 and 12 contribute to a total CDAI score at each of the time points. Moderate to severe Crohn's disease (CD) subjects as determined by a Crohn's Disease Activity Index (CDAI) score of 220-450 (inclusive). […] Each dose is studied sequentially in a distinct cohort. Scheduled in-clinic visits are conducted at screening, baseline and at weeks 1, 2, 4, 6 and 8. […] Subjects who early-discontinues study drug prior to visit week 8 go to follow-up termination visit within 4 weeks (28 days) of study drug discontinuation. A loading dose regimen of the study drug is given during the first two days of treatment (day 1/baseline and thereafter). The first loading dose of the study is administered at the site. The loading dose is double the intended dose for the first two days and is administered twice daily (BID) with 12 hour interval between dosing. Thereafter, starting on day 3, the dosing regimen consists of the intended dose once daily (QD) (see Table 1): • 1. Day 1 (Baseline): loading dose of the drug (intended dose at 0 hour, at the site and intended dose at 12 hours). Total dose is twice the intended dose. • 2. Day 2: loading dose of the study drug (intended dose at 0 hour and intended dose at 12 hours). Total dose is twice the intended dose. • 3. Day 3: Intended/maintenance dose of the study drug. […] Proportion of subjects in clinical remission (total CDAI score <150) at weeks 4, 6, 8 and 12. • 2. Proportion of subjects who respond to treatment (decrease from baseline of at least 100 points in CDAI score ore remission) at week 4, 6, 8 and 12. • 3. Time to remission. • 4. Time to response. • 5. C-Reactive Protein (CRP) change from baseline at weeks 2, 4, 6, 8 and 12. • 6. Fecal calprotectin change from baseline to weeks 2, 4, 6, 8 and 12. • 7. Proportion of subjects with a decrease from baseline of at least 50% in the number of open draining fistulas. Safety/Tolerability • 1. Adverse events (AEs). • 2. Clinical laboratory values. • 3. Vital signs. • 4. ECG. • 5. Proportion of subjects who prematurely discontinue treatment. • 6. Proportion of subjects who prematurely discontinue treatment due to AEs. • 7. Time to premature treatment discontinuation. • 8. Time to premature treatment discontinuation due to AEs. Determination of the Highest Tolerable Dose
# [2] = previous pharmacokinetic studies of laquinimod (time to steady state, oral bioavailability); assay type: in vivo; conditions: with loading dose regimen (double the intended dose for the first two days)
# From the text: In order to decrease thee time to steady state and potentially decrease time to response, a loading dose regimen described below is used to allow steady state levels to be reached in approximately 6-7 days.
# [3] = background statement; cited from earlier work
smiles,measurement,setting,value
CCN(C(=O)c1c(O)c2c(Cl)cccc2n(C)c1=O)c1ccccc1 [laquinimod],dependence on steroids,[1]; 0.5 mg/day oral,lowers
same,C-Reactive Protein level,[1]; 0.5 mg/day oral,lowers
same,clinical remission,[1]; 0.5 mg/day oral,induces and/or maintains
same,clinical response,[1]; 0.5 mg/day oral,induces
same,disease progression and/or disease complication,[1]; 0.5 mg/day oral,inhibits
same,fecal calprotein level,[1]; 0.5 mg/day oral,lowers
same,number of open draining fistulas,[1]; 0.5 mg/day oral,reduces
same,symptoms of Crohn's disease,[1]; 0.5 mg/day oral,reduces
same,dependence on steroids,[1]; 1.0 mg/day oral,lowers
same,C-Reactive Protein level,[1]; 1.0 mg/day oral,lowers
same,clinical remission,[1]; 1.0 mg/day oral,induces and/or maintains
same,clinical response,[1]; 1.0 mg/day oral,induces
same,disease progression and/or disease complication,[1]; 1.0 mg/day oral,inhibits
same,fecal calprotein level,[1]; 1.0 mg/day oral,lowers
same,number of open draining fistulas,[1]; 1.0 mg/day oral,reduces
same,symptoms of Crohn's disease,[1]; 1.0 mg/day oral,reduces
same,dependence on steroids,[1]; 1.5 mg/day oral,lowers
same,C-Reactive Protein level,[1]; 1.5 mg/day oral,lowers
same,clinical remission,[1]; 1.5 mg/day oral,induces and/or maintains
same,clinical response,[1]; 1.5 mg/day oral,induces
same,disease progression and/or disease complication,[1]; 1.5 mg/day oral,inhibits
same,fecal calprotein level,[1]; 1.5 mg/day oral,lowers
same,number of open draining fistulas,[1]; 1.5 mg/day oral,reduces
same,symptoms of Crohn's disease,[1]; 1.5 mg/day oral,reduces
same,dependence on steroids,[1]; 2.0 mg/day oral,lowers
same,C-Reactive Protein level,[1]; 2.0 mg/day oral,lowers
same,clinical remission,[1]; 2.0 mg/day oral,induces and/or maintains
same,clinical response,[1]; 2.0 mg/day oral,induces
same,disease progression and/or disease complication,[1]; 2.0 mg/day oral,inhibits
same,fecal calprotein level,[1]; 2.0 mg/day oral,lowers
same,number of open draining fistulas,[1]; 2.0 mg/day oral,reduces
same,symptoms of Crohn's disease,[1]; 2.0 mg/day oral,reduces
same,time to reach steady state levels,[2],6 to 7 days
same,oral bioavailability,[3],high oral bioavailability

# From US8598203B2 (Teva Pharmaceutical Industries, Ltd., priority 2009, dated 2013)
